# pIC50: −log10 of the molar value.
# Target: Human CARM1 (PRMT4) (Homo sapiens (Human), UniProt Q86X55)
# Experiment: CARM1 enzyme assay on peptide substrate (3H-SAM Flashplate)
# Conditions: Biochemical potencies, classification codes; read-out: Biochem IC50
# Sequence of Human CARM1 (PRMT4) (Q86X55 other isoform, or with tags, fused parts or gaps isoform Q86X55-1): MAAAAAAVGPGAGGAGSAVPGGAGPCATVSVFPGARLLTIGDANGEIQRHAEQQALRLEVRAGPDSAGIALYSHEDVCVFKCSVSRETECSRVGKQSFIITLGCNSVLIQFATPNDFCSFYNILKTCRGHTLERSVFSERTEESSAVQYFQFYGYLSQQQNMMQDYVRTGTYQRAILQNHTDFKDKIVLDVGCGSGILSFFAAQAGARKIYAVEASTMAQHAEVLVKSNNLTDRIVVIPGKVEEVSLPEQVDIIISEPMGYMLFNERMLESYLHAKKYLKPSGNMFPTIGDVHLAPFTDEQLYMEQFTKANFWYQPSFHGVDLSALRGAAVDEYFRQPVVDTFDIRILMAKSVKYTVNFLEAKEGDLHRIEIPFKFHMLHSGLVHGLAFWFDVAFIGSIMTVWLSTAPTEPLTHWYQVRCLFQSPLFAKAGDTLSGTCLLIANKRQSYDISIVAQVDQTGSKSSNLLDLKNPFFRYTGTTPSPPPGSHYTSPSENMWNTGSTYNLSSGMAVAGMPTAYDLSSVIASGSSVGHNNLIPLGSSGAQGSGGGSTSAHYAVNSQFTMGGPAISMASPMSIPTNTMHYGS
row,pIC50,Compound
1,> 7.00,CCNC(=O)N1CCN(c2nc(-c3cccc(OCC(O)CNC)c3)nc(-c3c(C)noc3C)c2C)CC1 (stereo not drawn) [Example 106-1a]
2,> 7.00,CNC[C@H](O)COc1ccc(F)c(-c2nc(-c3c(C)noc3C)c(C)c(N3CCC4(CCN(C(=O)OC)C4)C3)n2)c1 (stereo partly drawn) [Example 106-3]
3,> 7.00,CNC[C@@H](O)COc1ccc(Cl)c(-c2nc(-c3c(C)noc3C)c(C)c(N3CC4(CCN(C5CC5)CC4)C3)n2)c1 [Example 108-3]
4,> 7.00,CNCC(O)COc1cccc(-c2nc(-c3c(C)noc3C)c(C)c(N3CCN4C(=O)OC[C@@H]4C3)n2)c1 (stereo partly drawn) [Example 110-1a]
5,> 7.00,CNCC(O)COc1cccc(-c2nc(-c3c(C)noc3C)c(C)c(N3CC[C@@H](S(C)(=O)=O)C3)n2)c1 (stereo partly drawn) [Example 111-1a]
6,> 7.00,CNCC(O)COc1cccc(-c2nc(-c3c(C)noc3C)cc(-c3cnc4cnccn34)n2)c1 (stereo not drawn) [Example 112-1a]
7,> 7.00,CNCC(O)COc1cccc(-c2nc(NCC3(O)CCOCC3)c(C)c(-c3c(C)noc3C)n2)c1 (stereo not drawn) [Example 114-1a]
8,> 7.00,CNC[C@@H](O)COc1ccc(F)c(-c2nc(-c3c(C)noc3C)c(C)c(N3Cc4cccnc4C3)n2)c1 [Example 114-3]
9,> 7.00,CNCC(O)COc1cccc(-c2nc(NCC3(C)CCOCC3)c(C)c(-c3c(C)noc3C)n2)c1 (stereo not drawn) [Example 115-1a]
10,> 7.00,CNC[C@@H](O)COc1ccc(Cl)c(-c2nc(-c3c(C)noc3C)c(C)c(N3CC4(CCOCC4)C3)n2)c1 [Example 118-3]
11,> 7.00,CNC[C@@H](O)COc1ccc(Cl)c(-c2nc(-c3c(C)noc3C)c(C)c(N3CC4(CCCOC4)C3)n2)c1 [Example 119-3]
12,> 7.00,CNCC(O)COc1cccc(-c2nc(-c3c(C)noc3C)c(C)c(N3CCO[C@H](CO)C3)n2)c1 (stereo partly drawn) [Example 125-1a]
13,> 7.00,CNCC(O)COc1ccc(C)c(-c2nc(NC3CCN(C(=O)OC)CC3)c(C)c(-c3c(C)noc3C)n2)c1 (stereo not drawn) [Example 125-3]
14,> 7.00,CNCC(O)COc1cccc(-c2nc(-c3c(C)noc3C)c(C)c(N3CCO[C@H](CN(C)C(=O)OC)C3)n2)c1 (stereo partly drawn) [Example 127-1a]
15,> 7.00,CNC[C@@H](O)COc1ccc(Cl)c(-c2nc(NC[C@H]3CCCO3)c(C)c(-c3c(C)noc3C)n2)c1 [Example 130-3]
16,> 7.00,CNCC(O)COc1cccc(-c2nc(-c3c(C)noc3C)cc(N3CCNC(C(F)(F)F)C3)n2)c1 (stereo not drawn) [Example 131-1a]
17,> 7.00,CNC[C@@H](O)COc1ccc(Cl)c(-c2nc(NC[C@H]3COCCN3C(=O)OC(C)C)c(C)c(-c3c(C)noc3C)n2)c1 [Example 134-3]
18,> 7.00,CNC[C@@H](O)COc1ccc(Cl)c(-c2nc(N[C@@H]3CCN(C(=O)OC)[C@H](C)C3)c(C)c(-c3c(C)noc3C)n2)c1 [Example 135-3]
19,> 7.00,CCOC(=O)N1CCC[C@H]1CCNc1nc(-c2cc(OC[C@H](O)CNC)ccc2Cl)nc(-c2c(C)noc2C)c1C [Example 137-3]
20,> 7.00,CNC[C@@H](O)COc1ccc(Cl)c(-c2nc(-c3c(C)noc3C)c(C)c(N3CCC4(CCN(C5CC5)C4)C3)n2)c1 (stereo partly drawn) [Example 138-3]
21,> 7.00,CNCC(O)COc1cccc(-c2nc(-c3c(C)noc3C)cc(N3CCN(CCOC)CC3)n2)c1 (stereo not drawn) [Example 139-1a]
22,> 7.00,CNC[C@@H](O)COc1ccc(Cl)c(-c2nc(N[C@@H]3CCN(C4CC4)[C@H](C)C3)c(C)c(-c3c(C)noc3C)n2)c1 [Example 139-3]
23,> 7.00,CNC[C@@H](O)COc1ccc(Cl)c(-c2nc(-c3c(C)noc3C)c(C)c(N3CCc4nc(C)sc4C3)n2)c1 [Example 141-3]
24,> 7.00,CNCC(O)COc1cccc(-c2nc(NCC3CCOCC3)c(Cl)c(-c3c(C)noc3C)n2)c1 (stereo not drawn) [Example 142-1a]
25,> 7.00,CNC[C@@H](O)COc1ccc(Cl)c(-c2nc(-c3c(C)noc3C)c(C)c(N3Cc4nccnc4C3)n2)c1 [Example 142-3]
26,> 7.00,CNCC(O)COc1cccc(-c2nc(NCC3CCOCC3)c(F)c(-c3c(C)noc3C)n2)c1 (stereo not drawn) [Example 143-1a]

# Continued, molecule first:
row,Compound,pIC50
1,CCOC(=O)N1CCC(Nc2nc(-c3cc(OC[C@@H](O)CNC)ccc3Cl)nc(-c3c(C)noc3C)c2C)CC1 [Example 105-3],> 7.00
2,CNCC(O)COc1cccc(-c2nc(-c3c(C)noc3C)c(C)c(N3CCN(C(=O)C(F)F)CC3)n2)c1 (stereo not drawn) [Example 107-1a],> 7.00
3,CNCC(O)COc1cccc(-c2nc(-c3c(C)noc3C)c(C)c(N3CCN(C(=O)C4CCOCC4)CC3)n2)c1 (stereo not drawn) [Example 108-1a],> 7.00
4,CNCC(O)COc1cccc(-c2nc(-c3c(C)noc3C)cc(N3C[C@H]4C[C@@H]3CN4)n2)c1 (stereo partly drawn) [Example 109-1a],> 7.00
5,CNC[C@@H](O)COc1ccc(Cl)c(-c2nc(N[C@H]3C[C@@](C)(OC)C3)c(C)c(-c3c(C)noc3C)n2)c1 [Example 110-3],> 7.00
6,CNC[C@@H](O)COc1ccc(Cl)c(-c2nc(N[C@H]3CCOC3)c(C)c(-c3c(C)noc3C)n2)c1 [Example 111-3],> 7.00
7,CCOC(=O)N1CC[C@@H](Nc2nc(-c3cc(OC[C@H](O)CNC)ccc3Cl)nc(-c3c(C)noc3C)c2C)C1 [Example 112-3],> 7.00
8,CNC[C@@H](O)COc1ccc(Cl)c(-c2nc(-c3c(C)noc3C)c(C)c(N3CCC4(CC3)CN(C(=O)OC)C4)n2)c1 [Example 115-3],> 7.00
9,CNCC(O)COc1cccc(-c2nc(-c3c(C)noc3C)c(C)c(N3C[C@H]4CC[C@@H](C3)N4C)n2)c1 (stereo partly drawn) [Example 116-1a],> 7.00
10,CNC[C@@H](O)COc1ccc(Cl)c(-c2nc(OC[C@H]3CCCO3)c(C)c(-c3c(C)noc3C)n2)c1 [Example 116-3],> 7.00
11,CNCC(O)COc1cccc(-c2nc(-c3c(C)noc3C)c(C)c(N3[C@@H]4CC[C@H]3CN(C)C4)n2)c1 (stereo partly drawn) [Example 117-1a],> 7.00
12,CNC[C@@H](O)COc1ccc(Cl)c(-c2nc(OC[C@H]3CCOC3)c(C)c(-c3c(C)noc3C)n2)c1 [Example 117-3],> 7.00
13,CNCC(O)COc1cccc(-c2nc(NC3CCN(C(=O)OC)CC3)c(C)c(-c3c(C)noc3C)n2)c1 (stereo not drawn) [Example 118-1a],> 7.00
14,CNCC(O)COc1cccc(-c2nc(-c3c(C)noc3C)cc(N3CCN(C(=O)N(C)C)CC3)n2)c1 (stereo not drawn) [Example 120-1a],> 7.00
15,CNC[C@@H](O)COc1ccc(Cl)c(-c2nc(-c3c(C)noc3C)c(C)c(N3CC4(CCOC4)C3)n2)c1 [Example 120-3],> 7.00
16,CNCC(O)COc1cccc(-c2nc(-c3c(C)noc3C)c(C)c(N3CCN(C(=O)OCCF)CC3)n2)c1 (stereo not drawn) [Example 121-1a],> 7.00
17,CNC[C@@H](O)COc1ccc(Cl)c(-c2nc(-c3c(C)noc3C)c(C)c(N3CC4(CCCO4)C3)n2)c1 [Example 121-3],> 7.00
18,CNC[C@@H](O)COc1ccc(Cl)c(-c2nc(-c3c(C)noc3C)c(C)c(N3CCc4nn(C)cc4C3)n2)c1 [Example 122-3],> 7.00
19,CNCC(O)COc1cccc(-c2nc(-c3c(C)noc3C)c(C)c(N3CCO[C@H](CNC)C3)n2)c1 (stereo partly drawn) [Example 124-1a],> 7.00
20,CNCC(O)COc1ccc(C)c(-c2nc(NC3CCOC(C)C3)c(C)c(-c3c(C)noc3C)n2)c1 (stereo not drawn) [Example 124-3],> 7.00

row,Compound,pIC50
1,CNCC(O)COc1cccc(-c2nc(-c3c(C)noc3C)c(C)c(N3CCO[C@H](CN(C)S(C)(=O)=O)C3)n2)c1 (stereo partly drawn) [Example 126-1a],> 7.00
2,CNC[C@@H](O)COc1ccc(Cl)c(-c2nc(OC[C@@H]3CCOC3)c(C)c(-c3c(C)noc3C)n2)c1 [Example 126-3],> 7.00
3,CNC[C@@H](O)COc1ccc(Cl)c(-c2nc(NC3CCOCC3)c(C)c(-c3c(C)noc3C)n2)c1 [Example 127-3],> 7.00
4,CNC[C@@H](O)COc1ccc(Cl)c(-c2nc(N[C@H]3CCO[C@@H](C)C3)c(C)c(-c3c(C)noc3C)n2)c1 [Example 128-3],> 7.00
5,CCOC(=O)N1CC[C@@H](Nc2nc(-c3cc(OC[C@H](O)CNC)ccc3Cl)nc(-c3c(C)noc3C)c2Cl)C1 [Example 129-3],> 7.00
6,CNC[C@@H](O)COc1ccc(Cl)c(-c2nc(NC[C@@H]3CCCO3)c(C)c(-c3c(C)noc3C)n2)c1 [Example 131-3],> 7.00
7,CNCC(O)COc1cccc(-c2nc(-c3c(C)noc3C)cc(N3CCN(CC(F)(F)F)CC3)n2)c1 (stereo not drawn) [Example 132-1a],> 7.00
8,CNC[C@@H](O)COc1ccc(Cl)c(-c2nc(N[C@@H]3CCO[C@H](C)C3)c(C)c(-c3c(C)noc3C)n2)c1 [Example 132-3],> 7.00
9,CNCC(O)COc1cccc(-c2nc(-c3c(C)noc3C)cc(N3CCN(C(=O)C4CC4)CC3)n2)c1 (stereo not drawn) [Example 133-1a],> 7.00
10,CCOC(=O)N1CCC[C@@H]1COc1nc(-c2cc(OC[C@H](O)CNC)ccc2Cl)nc(-c2c(C)noc2C)c1C [Example 133-3],> 7.00
11,CNCC(O)COc1cccc(-c2nc(-c3c(C)noc3C)c(C)c(N3CCN(C(=O)OCCOC)CC3)n2)c1 (stereo not drawn) [Example 134-1a],> 7.00
12,CNCC(O)COc1cccc(-c2nc(N[C@H]3CC[C@H](O)C3)c(C)c(-c3c(C)noc3C)n2)c1 (stereo partly drawn) [Example 135-1a],> 7.00
13,CNCC(O)COc1cc(NC)cc(-c2nc(NC3CCOCC3)c(C)c(-c3c(C)noc3C)n2)c1 (stereo not drawn) [Example 136-1a],> 7.00
14,CCOC(=O)N1CCC[C@@H]1CCNc1nc(-c2cc(OC[C@H](O)CNC)ccc2Cl)nc(-c2c(C)noc2C)c1C [Example 136-3],> 7.00
15,CNCC(O)COc1ccc(Cl)c(-c2nc(NC3(C)CCOCC3)c(Cl)c(-c3c(C)noc3C)n2)c1 (stereo not drawn) [Example 137-1a],> 7.00
16,CNC[C@H](O)COc1ccc(Cl)c(-c2nc(-c3c(C)noc3C)c(C)c(N3CCC4(CCN(C5CC5)C4)C3)n2)c1 (stereo partly drawn) [Example 138-1a],> 7.00
17,CNCC(O)COc1cccc(-c2nc(NCC3(N(C)C)CCOCC3)c(C)c(-c3c(C)noc3C)n2)c1 (stereo not drawn) [Example 140-1a],> 7.00
18,CNC[C@@H](O)COc1ccc(Cl)c(-c2nc(-c3c(C)noc3C)c(C)c(N3Cc4cnn(C)c4C3)n2)c1 [Example 140-3],> 7.00
19,CCC1(CNc2nc(-c3cccc(OCC(O)CNC)c3)nc(-c3c(C)noc3C)c2C)CCOCC1 (stereo not drawn) [Example 141-1a],> 7.00
20,CNC[C@@H](O)COc1ccc(Cl)c(-c2nc(N[C@H]3C[C@H](OC)C3)c(C)c(-c3c(C)noc3C)n2)c1 [Example 143-3],> 7.00

# Source: patent US20230279020A9, “CARM1 INHIBITORS AND USES THEREOF” (Epizyme, Inc., priority 2013, published 2023)
